Here are results for ten compounds from ChEMBL document CHEMBL1201862, “PubChem BioAssay data set” (2004).

Test systems include SF-295; A549; KM12; SR; CCRF-CEM; NCI-H23; NCI-H460; SW-620; SF-268; SK-OV-3; BT-549; T47D; DU-145; NCI-H522; TK-10; HCC 2998; OVCAR-3; NCI-H226; ACHN; HT-29.
What all share (test): NCI tumour cell line growth inhibition, 48 h

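Tested at 5 concentrations; 48 h exposure; 96-well plates; endpoints linearly interpolated, else capped at highest concentration. The concentration for 50% growth inhibition is given as GI50.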 Activity calls are given as the source filed them. No stated cut-off is given here; in the data, active = GI50 up to about 1.1 µM and inactive = higher.

Regarding `CN(C)Cc1cc(/N=N/c2ccc(Cl)cc2)ccc1O`, the GI50 in the assay on SF-295 is 16.5 µM (inactive); with A549, 16 µM (inactive); with KM12, 17.3 µM (inactive); in the assay on SR, 16.4 µM (inactive); in the assay with CCRF-CEM, 17.8 µM (inactive); in the assay on NCI-H23, 23 µM (inactive). Also, the GI50 in the assay on NCI-H460 was 13.8 µM (inactive); in the assay with SW-620, 16.4 µM (inactive); with SF-268 it was 14.8 µM (inactive); in the assay with SK-OV-3 it was 18.7 µM (inactive); in the assay with BT-549, 10.7 µM (inactive); in the assay on T47D, 12.4 µM (inactive). The GI50 was 25.1 µM (inactive) with DU-145; 13.5 µM (inactive) with NCI-H522; 15 µM (inactive) in the assay on TK-10; 14.6 µM (inactive) in the assay with HCC 2998; 11.5 µM (inactive) in the assay on OVCAR-3; 14.6 µM (inactive) in the assay on NCI-H226. For the same compound, the GI50 was 15.3 µM (inactive) in the assay on ACHN and 12.6 µM (inactive) in the assay on HT-29.

On to `O=C(/C=C/c1cccc(Oc2ccccc2)c1)NCc1ccc(C(=O)NCc2ccccc2)cc1`, for which the GI50 with SF-295 was 21.8 µM (inactive); in the assay on A549, > 100 µM (inactive); in the assay with KM12, > 100 µM (inactive); in the assay with SR, > 100 µM (inactive); in the assay on CCRF-CEM it was > 100 µM (inactive); in the assay on NCI-H23 it was 31 µM (inactive). The GI50 with NCI-H460 was > 100 µM (inactive); in the assay on SW-620, > 100 µM (inactive); in the assay with SF-268, > 100 µM (inactive); with SK-OV-3, 4.55 µM (inactive); with BT-549, 60.1 µM (inactive); with T47D, > 100 µM (inactive). For the same compound, the GI50 is > 100 µM (inactive) in the assay with DU-145; 98.9 µM (inactive) in the assay on NCI-H522; 46.5 µM (inactive) in the assay on TK-10; > 100 µM (inactive) with HCC 2998; 68.5 µM (inactive) in the assay with OVCAR-3; 27.5 µM (inactive) in the assay with NCI-H226. Further, the GI50 is 71 µM (inactive) in the assay on ACHN and 17.3 µM (inactive) in the assay with HT-29.

Regarding `CCOc1cc(NC(C)=O)ccc1C(=O)NNC(=O)c1ccccc1OC(C)=O`, the GI50 with SF-295 was 8.36 µM (inactive); with A549, 6.76 µM (inactive); in the assay on KM12, 7.08 µM (inactive); in the assay on SR it was 1.05 µM (active); with CCRF-CEM, 4.22 µM (inactive); with NCI-H23, 18 µM (inactive). In addition, the GI50 in the assay with NCI-H460 is 4.04 µM (inactive); in the assay with SW-620, 4.01 µM (inactive); in the assay with SF-268 it was 7.24 µM (inactive); in the assay with SK-OV-3, 11.8 µM (inactive); with BT-549 it was 19.5 µM (inactive); in the assay with T47D, 8.55 µM (inactive). For the same compound, the GI50 is 8.28 µM (inactive) with DU-145; 5.83 µM (inactive) in the assay with NCI-H522; 1.5 µM (inactive) in the assay on TK-10; 4.95 µM (inactive) in the assay with HCC 2998; 3.24 µM (inactive) in the assay with OVCAR-3; 5.19 µM (inactive) in the assay on NCI-H226. The GI50 in the assay on ACHN was 3.79 µM (inactive); with HT-29, 34 µM (inactive).

Turning to `N#Cc1ncn(CCO)c1N`, the GI50 with SF-295, in the assay with A549, in the assay with KM12, in the assay on SR, in the assay with CCRF-CEM and in the assay with NCI-H23 was > 100 µM (inactive) in each case. For the same compound, the GI50 in the assay with NCI-H460, in the assay on SW-620, in the assay with SF-268, in the assay with SK-OV-3, with BT-549 and in the assay with T47D was > 100 µM (inactive) throughout. Besides, the GI50 with DU-145, with NCI-H522, with TK-10, in the assay on HCC 2998, with OVCAR-3 and in the assay with NCI-H226 was > 100 µM (inactive) in each case. Besides, the GI50 in the assay on ACHN and in the assay with HT-29 was > 100 µM (inactive) in each case.

Turning to `CC(=O)Oc1c2c(c(CC=C(C)C)c3c1C(=O)C1=C[C@@H]4CC5C(C)(C)OC(C/C=C(/C)C(=O)O)(C4=O)[C@@]15O3)OC(C)(CCC=C(C)C)C=C2` (stereo not given in full), the GI50 in the assay with SF-295 is 0.454 µM (active); with A549 it was 0.188 µM (active); in the assay with KM12, 0.188 µM (active); with SR, 0.258 µM (active); with CCRF-CEM it was 0.101 µM (active); in the assay with NCI-H23, 0.197 µM (active). The GI50 with NCI-H460 was 0.486 µM (active); with SW-620, 0.091 µM (active); with SF-268 it was 0.408 µM (active); in the assay with SK-OV-3, 0.585 µM (active); in the assay with BT-549, 0.205 µM (active); with T47D, 0.12 µM (active). The GI50 with DU-145 is 0.287 µM (active); in the assay with NCI-H522 it was 0.0796 µM (active); with TK-10 it was 0.134 µM (active); in the assay on HCC 2998 it was 0.61 µM (active); with OVCAR-3, 0.308 µM (active); in the assay on NCI-H226 it was 0.313 µM (active). For the same compound, the values for the GI50 with ACHN and in the assay on HT-29 were 0.102 µM (active) and 0.19 µM (active), respectively.

As for `O=C(CSc1nc2ccc(I)cc2c(=O)n1Cc1ccccc1)NNC(=O)c1ccccc1`, the GI50 with SF-295 was 11.4 µM (inactive); in the assay with A549, 11.9 µM (inactive); in the assay with KM12 it was 17.5 µM (inactive); in the assay on SR, 11.5 µM (inactive); in the assay with CCRF-CEM it was 49.7 µM (inactive); with NCI-H23, 17.6 µM (inactive). Also, the GI50 with NCI-H460 is 17.3 µM (inactive); in the assay with SW-620 it was 36.1 µM (inactive); in the assay with SF-268 it was 6.79 µM (inactive); in the assay with SK-OV-3 it was 17.2 µM (inactive); in the assay on BT-549, 7.31 µM (inactive); in the assay on T47D it was 10.6 µM (inactive). Also, the GI50 in the assay with DU-145 is 13.9 µM (inactive); in the assay on NCI-H522, 6.4 µM (inactive); with TK-10, 11.8 µM (inactive); in the assay with HCC 2998 it was 33.8 µM (inactive); in the assay with OVCAR-3, 19 µM (inactive); in the assay with NCI-H226, 3.78 µM (inactive). The values for the GI50 with ACHN and in the assay on HT-29 were 17.7 µM (inactive) and 19.8 µM (inactive), respectively.

Take `COc1ccc([S+]([O-])Cc2cc(OC)c(OC)c(OC)c2)cc1` (stereo not given): the GI50 was 47.3 µM (inactive) in the assay with SF-295; 49.1 µM (inactive) in the assay on A549; 40.8 µM (inactive) with KM12; 37.8 µM (inactive) in the assay with SR; 41.3 µM (inactive) in the assay on CCRF-CEM; 76.2 µM (inactive) in the assay on NCI-H23. Further, the GI50 is 33.2 µM (inactive) in the assay with NCI-H460; 30.3 µM (inactive) with SW-620; 97.5 µM (inactive) in the assay with SF-268; > 100 µM (inactive) with SK-OV-3; 46.7 µM (inactive) with BT-549; > 100 µM (inactive) in the assay with T47D. Besides, the GI50 with DU-145 was > 100 µM (inactive); in the assay on NCI-H522 it was 51.3 µM (inactive); with TK-10 it was > 100 µM (inactive); with HCC 2998 it was 54.3 µM (inactive); with OVCAR-3, 57.8 µM (inactive); in the assay with NCI-H226 it was > 100 µM (inactive). Besides, the GI50 in the assay with ACHN was > 100 µM (inactive); with HT-29, 31.3 µM (inactive).

Regarding `N#Cc1c(N)c2c(c(-c3ccccc3)c1-c1ccccc1)C(=O)N(N)C2=O`, the GI50 was 89.3 µM (inactive) in the assay with SF-295; 94 µM (inactive) in the assay on A549; > 100 µM (inactive) in the assay on KM12; > 100 µM (inactive) with SR; 42.7 µM (inactive) in the assay with CCRF-CEM; > 100 µM (inactive) with NCI-H23. Also, the GI50 is > 100 µM (inactive) in the assay on NCI-H460; > 100 µM (inactive) with SW-620; > 100 µM (inactive) with SF-268; > 100 µM (inactive) with SK-OV-3; > 100 µM (inactive) with BT-549; 49.4 µM (inactive) with T47D. Moreover, the GI50 is > 100 µM (inactive) in the assay with DU-145; 38.6 µM (inactive) in the assay on NCI-H522; > 100 µM (inactive) in the assay on TK-10; > 100 µM (inactive) in the assay on HCC 2998; > 100 µM (inactive) in the assay with OVCAR-3; > 100 µM (inactive) with NCI-H226. For the same compound, the GI50 in the assay with ACHN and with HT-29 was > 100 µM (inactive) each time.

For `O=C1CC(Nc2ccccc2)c2c(Cl)sc(Cl)c21` (stereo not given), the GI50 in the assay with SF-295 is 5.11 µM (inactive); with A549 it was 2.05 µM (inactive); in the assay with KM12, 0.483 µM (active); in the assay on SR, 0.52 µM (active); with CCRF-CEM it was 0.127 µM (active); with NCI-H23, 1.91 µM (inactive). Further, the GI50 was 6.37 µM (inactive) with NCI-H460; 0.369 µM (active) in the assay on SW-620; 0.778 µM (active) in the assay on SF-268; 13.4 µM (inactive) in the assay with SK-OV-3; 2.22 µM (inactive) with BT-549; 1.48 µM (inactive) in the assay on T47D. Further, the GI50 with DU-145 was 1.6 µM (inactive); in the assay with NCI-H522 it was 0.139 µM (active); in the assay with TK-10, 1.81 µM (inactive); in the assay on HCC 2998, 1.76 µM (inactive); in the assay on OVCAR-3 it was 1.79 µM (inactive); with NCI-H226, 8.65 µM (inactive). The GI50 with ACHN is 1.18 µM (inactive); in the assay with HT-29 it was 1.7 µM (inactive).

Turning to `COC(=O)/C=C\C(C#N)(C#N)/N=C/c1ccccc1`, the GI50 with SF-295 was 18.7 µM (inactive); in the assay with A549, 17.8 µM (inactive); in the assay on KM12, 17.5 µM (inactive); with SR it was 0.897 µM (active); with CCRF-CEM, 0.337 µM (active); in the assay with NCI-H23, 7.35 µM (inactive). The GI50 is 18.7 µM (inactive) with NCI-H460; 1.46 µM (inactive) with SW-620; 4.95 µM (inactive) with SF-268; 18.3 µM (inactive) in the assay with SK-OV-3; 5.2 µM (inactive) in the assay on BT-549; 1.72 µM (inactive) with T47D. In addition, the GI50 in the assay with DU-145 was 17.1 µM (inactive); with NCI-H522 it was 0.471 µM (active); in the assay on TK-10, 2.25 µM (inactive); with HCC 2998 it was 19.4 µM (inactive); in the assay with OVCAR-3 it was 2.11 µM (inactive); with NCI-H226 it was 9.55 µM (inactive). The results for the GI50 in the assay on ACHN and in the assay on HT-29 were 2.3 µM (inactive) and 4.49 µM (inactive), respectively.
